Measured values taken from patent US10709706B2, “Nuclear transport modulators and uses thereof” (Karyopharm Therapeutics Inc., priority 2015, dated 2020).

What was measured:
Type in all cases: cell-based
MM1S cells = experiment: MTT cell proliferation assay, MM1S cells; settings: Homo sapiens, MM1.S, MM1S multiple myeloma cells, approximately 64-72 hours, 1 nM to 30 μM
Experimental: (§1) The MTT cell proliferation assay was used to study the cytotoxic properties of the compounds. The assay was performed according to the method described by Roche Molecular Biochemicals, with minor modifications. The assay is based on the cleavage of the tetrazolium salt, MTT, in the presence of an electron-coupling reagent. The water-insoluble formazan salt produced must be solubilized in an additional step. Cells grown in a 96-well tissue culture plate were incubated with the MTT solution for approximately 4 hours. After this incubation period, a water-insoluble formazan dye formed. After solubilization, the formazan dye was quantitated using a scanning multi-well spectrophotometer (ELISA reader). […] The cells were seeded at 5,000-10,000 cells in each well of 96-well plate in 100 μL of fresh culture medium and were allowed to attach overnight. The stock solutions of the compounds were diluted in 100 μL cell culture medium to obtain eight concentrations of each test compound, ranging from 1 nM to 30 μM. […] All optical densities were measured at 490 nm using a Vmax Kinetic Microplate Reader (Molecular Devices). In most cases, the assay was performed in duplicate and the results were presented as a mean percent inhibition to the negative control±SE. The following formula was used to calculate the percent of inhibition: Inhibition (%)=(1−(ODo/OD))×100.
(§2) The compounds were tested against Z138, MM1S and 3T3 cells. The Z138 cell line is a mature B-cell acute lymphoblastic leukemia cell line derived from a patient with chronic lymphocytic leukemia. The MM1S cell line was established from the peripheral blood of a human multiple myeloma patient. 3T3 cells are standard fibroblast cells; they were originally isolated from Swiss mouse embryo tissue.

3T3 cells = experiment: MTT cell proliferation assay, 3T3 cells; settings: Mus musculus, NIH3T3, 3T3 fibroblast cells, approximately 64-72 hours, 1 nM to 30 μM
Experimental: as §1, §2

Z138 cells = experiment: MTT cell proliferation assay, Z138 cells; settings: Homo sapiens, Z-138, approximately 64-72 hours, 1 nM to 30 μM
Experimental: as §1, §2

Row | SMILES | IC50 (MM1S cells) | IC50 (3T3 cells) | IC50 (Z138 cells)
1 | NC(=O)/C(=C/c1ccnc(-c2cc(C(F)(F)F)cc(C(F)(F)F)c2)n1)c1ccc(Cl)c(Cl)c1 [Compound 153, (E)-3-(2-(3,5-bis(trifluoromethyl)phenyl)pyrimidin-4-yl)-2-(3,4-dichlorophenyl)acrylamide] | 0.1 to 5 µM | > 30 µM | > 30 µM
2 | NC(=O)/C(=C/c1ccnc(-c2cc(C(F)(F)F)cc(C(F)(F)F)c2)n1)c1ccc(S(=O)(=O)N2CCCC2)cc1 [Compound 155, (E)-3-(2-(3,5-bis(trifluoromethyl)phenyl)pyrimidin-4-yl)-2-(4-(pyrrolidin-1-ylsulfonyl)phenyl)acrylamide] | 5 to 30 µM | > 30 µM | > 30 µM
3 | NC(=O)/C(=C/c1ccnc(-c2cc(C(F)(F)F)cc(C(F)(F)F)c2)n1)c1ccc(S(=O)(=O)N2CCCCC2)cc1 [Compound 156, (E)-3-(2-(3,5-bis(trifluoromethyl)phenyl)pyrimidin-4-yl)-2-(4-(piperidin-1-ylsulfonyl)phenyl)acrylamide] | > 30 µM | > 30 µM | > 30 µM
4 | NC(=O)/C(=C/c1ccnc(-c2cc(C(F)(F)F)cc(C(F)(F)F)c2)n1)c1ccc(S(=O)(=O)N2CCC(F)(F)C2)cc1 [Compound 157, (E)-3-(2-(3,5-bis(trifluoromethyl)phenyl)pyrimidin-4-yl)-2-(4-((3,3-difluoropyrrolidin-1-yl)sulfonyl)phenyl)acrylamide] | 0.1 to 5 µM | > 30 µM | 0.1 to 5 µM
5 | NC(=O)/C(=C/c1ccnc(-c2cc(C(F)(F)F)cc(C(F)(F)F)c2)n1)c1cncc2ccccc12 [Compound 158, (E)-3-(2-(3,5-bis(trifluoromethyl)phenyl)pyrimidin-4-yl)-2-(isoquinolin-4-yl)acrylamide] | < 0.1 µM | > 30 µM | < 0.1 µM
6 | NC(=O)/C(=C/c1ccnc(-c2cc(C(F)(F)F)cc(C(F)(F)F)c2)n1)c1ccc(S(=O)(=O)N2CCC(F)(F)CC2)cc1 [Compound 159, (E)-3-(2-(3,5-bis(trifluoromethyl)phenyl)pyrimidin-4-yl)-2-(4-((4,4-difluoropiperidin-1-yl)sulfonyl)phenyl)acrylamide] | 5 to 30 µM | > 30 µM | 0.1 to 5 µM
7 | NC(=O)/C(=C/c1ccnc(-c2cc(C(F)(F)F)cc(C(F)(F)F)c2)n1)c1cccc(S(=O)(=O)N2CCC(C(F)(F)F)CC2)c1 [Compound 160, (E)-3-(2-(3,5-bis(trifluoromethyl)phenyl)pyrimidin-4-yl)-2-(3-((4-(trifluoromethyl)piperidin-1-yl)sulfonyl)phenyl)acrylamide] | > 30 µM | > 30 µM | > 30 µM
8 | Cc1ccc(F)cc1/C(=C\c1ccnc(-c2cc(C(F)(F)F)cc(C(F)(F)F)c2)n1)C(N)=O [Compound 161, (E)-3-(2-(3,5-bis(trifluoromethyl)phenyl)pyrimidin-4-yl)-2-(5-fluoro-2-methylphenyl)acrylamide] | > 30 µM | > 30 µM | > 30 µM
9 | NC(=O)/C(=C/c1ccnc(-c2cc(C(F)(F)F)cc(C(F)(F)F)c2)n1)c1cccc(S(=O)(=O)N2CCCC2)c1 [Compound 162, (E)-3-(2-(3,5-bis(trifluoromethyl)phenyl)pyrimidin-4-yl)-2-(3-(pyrrolidin-1-ylsulfonyl)phenyl)acrylamide] | > 30 µM | > 30 µM | > 30 µM
10 | NC(=O)/C(=C/c1ccnc(-c2cc(C(F)(F)F)cc(C(F)(F)F)c2)n1)c1ccc(F)cc1 [Compound 163, (E)-3-(2-(3,5-bis(trifluoromethyl)phenyl)pyrimidin-4-yl)-2-(4-fluorophenyl)acrylamide] | > 30 µM | > 30 µM | > 30 µM
11 | CC1(C)CN(S(=O)(=O)c2cccc(/C(=C\c3ccnc(-c4cc(C(F)(F)F)cc(C(F)(F)F)c4)n3)C(N)=O)c2)CCO1 [Compound 164, (E)-3-(2-(3,5-bis(trifluoromethyl)phenyl)pyrimidin-4-yl)-2-(3-((2,2-dimethylmorpholino)sulfonyl)phenyl)acrylamide] | 0.1 to 5 µM | > 30 µM | > 30 µM
12 | NC(=O)/C(=C/c1ccnc(-c2cc(C(F)(F)F)cc(C(F)(F)F)c2)n1)c1ccc(N2CCOCC2)cc1 [Compound 165, (E)-3-(2-(3,5-bis(trifluoromethyl)phenyl)pyrimidin-4-yl)-2-(4-morpholinophenyl)acrylamide] | > 30 µM | > 30 µM | > 30 µM
13 | NC(=O)/C(=C/c1ccnc(-c2cc(C(F)(F)F)cc(C(F)(F)F)c2)n1)c1cccc(S(=O)(=O)N2CCC2)c1 [Compound 166, (E)-2-(3-(azetidin-1-ylsulfonyl)phenyl)-3-(2-(3,5-bis(trifluoromethyl)phenyl)pyrimidin-4-yl)acrylamide] | > 30 µM | > 30 µM | > 30 µM
14 | NC(=O)/C(=C/c1ccnc(-c2cc(C(F)(F)F)cc(C(F)(F)F)c2)n1)c1cccc(S(=O)(=O)N2CCCCC2)c1 [Compound 167, (E)-3-(2-(3,5-bis(trifluoromethyl)phenyl)pyrimidin-4-yl)-2-(3-(piperidin-1-ylsulfonyl)phenyl)acrylamide] | > 30 µM | > 30 µM | > 30 µM
